Measured values from the supplement of paper PMC11451515.

System: NOMO1
Assay: cell viability relative to DMSO control; higher = less cytotoxic
Conditions: 48 h
How it was run: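 Viability is expressed as a percentage of DMSO wells within each plate, and cell-free wells serve as background. Seeding densities in the 1536-well plates (5 μl) were 500 cells/well for NOMO1 or SEM leukemia cells and 1000 cells/well for P12-Ichikawa. Each line was adapted for at least four passages in each medium. Library compounds in DMSO were pin-dosed at 47 μM to 0.79 nM (11 points, threefold), and CellTiter-Glo One luminescence was read after 48 h at 37°C.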

[1] = HPLM + 10% dialyzed FBS, 0.000781 µM
[2] = HPLM + 10% dialyzed FBS, 0.00234 µM
[3] = HPLM + 10% dialyzed FBS, 0.00702 µM
[4] = HPLM + 10% dialyzed FBS, 0.0211 µM
[5] = HPLM + 10% dialyzed FBS, 0.0632 µM
[6] = HPLM + 10% dialyzed FBS, 0.19 µM
[7] = HPLM + 10% dialyzed FBS, 0.569 µM
[8] = HPLM + 10% dialyzed FBS, 1.71 µM
[9] = HPLM + 10% dialyzed FBS, 5.12 µM
[10] = HPLM + 10% dialyzed FBS, 15.4 µM
[11] = HPLM + 10% dialyzed FBS, 46.1 µM
[12] = RPMI 5 mM glucose + 10% dialyzed FBS, 0.000781 µM
[13] = RPMI 5 mM glucose + 10% dialyzed FBS, 0.00234 µM
[14] = RPMI 5 mM glucose + 10% dialyzed FBS, 0.00702 µM
[15] = RPMI 5 mM glucose + 10% dialyzed FBS, 0.0211 µM
[16] = RPMI 5 mM glucose + 10% dialyzed FBS, 0.0632 µM
[17] = RPMI 5 mM glucose + 10% dialyzed FBS, 0.19 µM
[18] = RPMI 5 mM glucose + 10% dialyzed FBS, 0.569 µM
[19] = RPMI 5 mM glucose + 10% dialyzed FBS, 1.71 µM
[20] = RPMI 5 mM glucose + 10% dialyzed FBS, 5.12 µM
[21] = RPMI 5 mM glucose + 10% dialyzed FBS, 15.4 µM
[22] = RPMI 5 mM glucose + 10% dialyzed FBS, 46.1 µM
[23] = RPMI 5 mM glucose + 10% FBS, 0.000781 µM
[24] = RPMI 5 mM glucose + 10% FBS, 0.00234 µM
[25] = RPMI 5 mM glucose + 10% FBS, 0.00702 µM
[26] = RPMI 5 mM glucose + 10% FBS, 0.0211 µM
[27] = RPMI 5 mM glucose + 10% FBS, 0.0632 µM
[28] = RPMI 5 mM glucose + 10% FBS, 0.19 µM
[29] = RPMI 5 mM glucose + 10% FBS, 0.569 µM
[30] = RPMI 5 mM glucose + 10% FBS, 1.71 µM
[31] = RPMI 5 mM glucose + 10% FBS, 5.12 µM
[32] = RPMI 5 mM glucose + 10% FBS, 15.4 µM
[33] = RPMI 5 mM glucose + 10% FBS, 46.1 µM

SMILES | cell viability [1] | cell viability [2] | cell viability [3] | cell viability [4] | cell viability [5] | cell viability [6] | cell viability [7] | cell viability [8] | cell viability [9] | cell viability [10] | cell viability [11] | cell viability [12] | cell viability [13] | cell viability [14] | cell viability [15] | cell viability [16] | cell viability [17] | cell viability [18] | cell viability [19] | cell viability [20] | cell viability [21] | cell viability [22] | cell viability [23] | cell viability [24] | cell viability [25] | cell viability [26] | cell viability [27] | cell viability [28] | cell viability [29] | cell viability [30] | cell viability [31] | cell viability [32] | cell viability [33]
C[C@]12CC[C@@H]3c4ccc(O)cc4CC[C@H]3[C@@H]1[C@@H](O)[C@@H](O)[C@@H]2O | 117% | 121% | 124% | 123% | 121% | 127% | 116% | 128% | 103% | 110% | 102% | 106% | 138% | 118% | 142% | 140% | 141% | 131% | 134% | 150% | 128% | 130% |  |  |  |  |  |  |  |  |  |  | 
C[C@]12CCC(=O)C=C1CC[C@@H]1[C@@H]2[C@@H](O)C[C@@]2(C)[C@H]1CC[C@]2(O)C(=O)CO | 99% | 109% | 121% | 127% | 117% | 125% | 120% | 115% | 102% | 121% | 109% | 119% | 111% | 106% | 118% | 116% | 113% | 130% | 125% | 118% | 116% | 127% | 110% | 98.3% | 108% | 112% | 100% | 129% | 129% | 111% | 111% | 105% | 120%
C[C@H](NC(=O)c1sccc1OCc1ccc(Cl)cc1)c1ccccc1 | 80.8% | 88.2% | 80% | 77.6% | 91.5% | 87.5% | 69.1% | 68.5% | 86.9% | 80.1% | 69% | 91.3% | 83.6% | 77.9% | 90.7% | 82% | 76.2% | 66.8% | 82.6% | 90.8% | 77.7% | 87.8% | 85.6% | 83.6% | 72.4% | 82.2% | 94.3% | 77.9% | 83.1% | 78.7% | 77.7% | 81.1% | 77.5%
CNCCCC12CCC(c3ccccc31)c1ccccc12 | 106% | 102% | 107% | 110% | 111% | 99.9% | 101% | 90% | 95.2% | 63.5% | 18.3% | 94.5% | 87.9% | 88.2% | 106% | 91.6% | 91% | 85.1% | 94% | 76.2% | 74.4% | 38.4% | 104% | 94.9% | 92.2% | 97.2% | 95.2% | 84.4% | 85.8% | 98.3% | 79.2% | 80.9% | 60.6%
Cc1nc2cnc3ccc(C#Cc4cccnc4)cc3c2n1-c1ccc(C(C)(C)C#N)cc1 | 72.6% | 84.9% | 82.3% | 83.2% | 50.2% | 59.6% | 38.7% | 44.8% | 43.3% | 36.3% | 8.48% | 66.4% | 81.6% | 91.9% | 84.9% | 56.7% | 60.7% | 30.4% | 48.8% | 40.1% | 48.4% | 9.18% | 65% | 78.6% | 69.6% | 81.1% | 61.8% | 62.7% | 32% | 47.1% | 44.1% | 38.6% | 7.85%
CC(C)c1noc(N2CCC(COc3ccc(-c4ccc([S+](C)(=O)[O-])cc4)nc3)CC2)n1 | 122% | 104% | 117% | 103% | 122% | 108% | 120% | 109% | 94.3% | 109% | 116% | 118% | 122% | 118% | 122% | 117% | 128% | 119% | 109% | 116% | 113% | 107% | 114% | 113% | 122% | 118% | 121% | 114% | 122% | 104% | 105% | 110% | 100%
O=C(C=CC#Cc1cccc(N[S+](=O)([O-])c2ccccc2)c1)NO | 116% | 121% | 116% | 131% | 137% | 142% | 126% | 107% | 36.1% | 7.6% | 3.17% |  |  |  |  |  |  |  |  |  |  |  | 124% | 123% | 109% | 138% | 119% | 129% | 135% | 117% | 41.9% | 7.03% | 3.62%
COc1cc(OC2CCN(C)CC2)ccc1Nc1ncc2c(n1)n(C1CCCC1)c(=O)n2C | 80.9% | 86.8% | 107% | 85.9% | 96.8% | 90.8% | 103% | 108% | 93.6% | 87.7% | 2.59% | 76.6% | 88.9% | 90.4% | 83.6% | 81.2% | 95.2% | 91.6% | 100% | 91.7% | 60.4% | 16.1% | 82.7% | 82.5% | 75.4% | 84.8% | 78.1% | 92.8% | 83.2% | 76.5% | 81.1% | 76.9% | 18.4%
Cc1c(C)n(Cc2ccc(-c3ccccc3C(=O)O)cc2)c2ccc(C(=O)N[C@@H](C)c3ccc([N+](=O)[O-])cc3)cc12 | 92.6% | 107% | 106% | 103% | 115% | 116% | 102% | 86.8% | 86% | 32.2% | 35.1% | 108% | 121% | 104% | 109% | 114% | 107% | 125% | 106% | 111% | 19.2% | 16.2% | 118% | 107% | 111% | 126% | 105% | 112% | 124% | 101% | 101% | 18.7% | 12.3%
O=C(Nc1cc(Cl)cc2c1[nH]c1cnccc12)c1cccnc1 |  |  |  |  |  |  |  |  |  |  |  | 118% | 114% | 124% | 110% | 110% | 124% | 131% | 123% | 117% | 109% | 109% |  |  |  |  |  |  |  |  |  |  | 
CNC(=O)c1ccc2cc(C3(O)CCn4cncc43)ccc2c1 (centres undefined) | 124% | 131% | 121% | 127% | 143% | 118% | 126% | 137% | 113% | 98.1% | 112% |  |  |  |  |  |  |  |  |  |  |  | 105% | 117% | 103% | 120% | 110% | 96.8% | 102% | 96.8% | 108% | 99.7% | 114%
C[S+](=O)([O-])Nc1ccc([N+](=O)[O-])cc1Oc1ccccc1 | 121% | 127% | 118% | 96.4% | 121% | 116% | 122% | 107% | 103% | 101% | 70.8% | 103% | 116% | 96% | 112% | 101% | 112% | 98.2% | 106% | 110% | 112% | 47.1% | 109% | 98.4% | 104% | 110% | 108% | 93.5% | 104% | 96.7% | 101% | 98.1% | 60.6%
O=C1c2ccccc2-[n+]2ccc3c([nH]c4ccccc43)c21 | 106% | 114% | 125% | 93.1% | 103% | 120% | 104% | 99.6% | 62% | 2.96% | 2.32% | 91.3% | 116% | 107% | 97.1% | 98.5% | 126% | 101% | 102% | 66.4% | 3.34% | 2% | 98% | 115% | 104% | 110% | 112% | 103% | 112% | 108% | 87% | 3.28% | 2.18%
CCN1CCN(CC1)CC(=O)NC2=CC=C(C3=C2C4=C(S3)C=CC=C4)C5=C6O\C(=C/C(=O)C6=CC=C5)N7CCOCC7 | 108% | 121% | 122% | 123% | 117% | 124% | 121% | 94.2% | 79.7% | 63.6% | 75.3% | 120% | 120% | 131% | 118% | 128% | 128% | 109% | 110% | 77.8% | 64.3% | 99.1% | 116% | 115% | 123% | 120% | 128% | 129% | 130% | 120% | 98% | 74.5% | 86.1%
CC[C@H](NC1=C2N=C[NH]C2=NC=N1)C/3=N/C4=C(C(=CC=C4)F)C(=O)N3C5=CC=CC=C5 |  |  |  |  |  |  |  |  |  |  |  | 125% | 121% | 123% | 125% | 133% | 110% | 117% | 114% | 100% | 82.2% | 57% | 116% | 119% | 139% | 122% | 125% | 116% | 113% | 113% | 111% | 107% | 76.9%
